Measurements published in patent publication US9932637B2, “Genetic polymorphisms associated with cardiovascular disorders and drug response, methods of detection and uses thereof” (CELERA CORPORATION, priority 2003, dated 2018).

Test system: patients with prior myocardial infarction (CARE study)
Assay: CARE: association of SNPs with pravastatin treatment in cardiovascular events prevention (logistic regression, odds ratio pravastatin vs placebo by genotype; Table 8)
Format: in vivo, human
Source text: In order to identify genetic markers associated with acute coronary events (e.g. MI, stroke, unstable angina, congestive heart failure, etc.) or response to statin treatment for the prevention of coronary events, samples from the Cholesterol and Recurrent Events (CARE) study (a randomized multicentral double-blinded trial on secondary prevention of acute coronary events with pravastatin) (Sacks et al., 1991, Am. J. Cardiol. 68: 1436-1446) were genotyped. A well-documented myocardial infarction (MI) was one of the enrollment criteria for entry into the CARE study. Patients were enrolled in the CARE trial from 80 participating study centers. […] Patients were randomized to receive either 40 mg of pravastatin once daily or a matching placebo. The primary endpoint of the trial was death from coronary heart disease and the median duration of follow-up was 5.0 years (range, 4.0 to 6.2 years). […] Secondary endpoints of other related cardiovascular or metabolic disease events, and changes in clinical variables were also recorded in pravastatin-treated and placebo groups. All individuals included in the study had signed a written informed consent form and the study protocol was approved by the respective Institutional Review Boards (IRBs).
For genotyping SNPs in CARE patient samples, DNA was extracted from blood samples using conventional DNA extraction methods such as the QIA-amp kit from Qiagen. Genotypes were obtained on an ABI PRISM® 7900HT Sequence Detection PCR system (Applied Biosystems, Foster City, Calif.) by kinetic allele-specific PCR, similar to the method described by Germer et al. (Germer S., Holland M. J., Higuchi R. 2000, Genome Res. 10: 258-266).
Statistical analysis for association of SNPs with pravastatin treatment in cardiovascular events prevention (Table 8) was carried out using an overall logistic regression model that included an intercept, a parameter for the effect of a genotype containing two rare alleles versus a genotype containing no rare alleles, a parameter for the effect of a genotype containing one rare allele versus a genotype containing no rare alleles, a parameter for the effect of use of pravastatin versus the use of placebo, and parameters for the interaction effects between SNP genotypes and pravastatin use. The test of the overall model is a chi-square test with two degrees of freedom for analyses containing all three genotypes, and one degree of freedom for analyses containing two genotypes.
Effect sizes were estimated through odds ratios (pravastatin group versus placebo) for carriers of each genotype (groups of 0, 1, and 2 minor allele carriers). The effect was considered to be significant if p-value for testing whether any of the interactions between SNP genotypes and pravastatin use were <0.05. […] Odds ratios less than one indicate that the specific SNP allele has a protective effect and odds ratios greater than one indicate that the specific SNP allele has an adverse effect.

[1] = CXCL16 hCV8718197, All Patients, Cardiovascular Mortality
[2] = CXCL16 hCV8718197, All Patients, Coronary Artery Bypass or Revascularization
[3] = CXCL16 hCV8718197, All Patients, Fatal Atherosclerotic Cardiovascular Disease
[4] = CXCL16 hCV8718197, All Patients, Fatal CHD/Definite Non-fatal MI
[5] = CXCL16 hCV8718197, All Patients, Fatal/Non-fatal MI (def & prob)
[6] = CXCL16 hCV8718197, All Patients, Hosp. for Cardiovascular Disease
[7] = CXCL16 hCV8718197, All Patients, Total Cardiovascular Disease Events
[8] = CXCL16 hCV8718197, All Patients, Total Coronary Heart Disease
[9] = CYP4F2 hCV16179493, All Patients, 0 Rare Alleles, Prava arm
[10] = CYP4F2 hCV16179493, All Patients, 1 Rare Allele, Prava arm
[11] = CYP4F2 hCV16179493, All Patients, 2 Rare Alleles, Prava arm
[12] = ELN hCV1253630, All Patients, 0 Rare Alleles, Prava, n/total 45/543

CC[C@H](C)C(=O)O[C@H]1C[C@H](O)C=C2C=C[C@H](C)[C@H](CC[C@@H](O)C[C@@H](O)CC(=O)O)[C@H]21 [pravastatin]
Fatal Atherosclerotic Cardiovascular Disease, n/total (%) (CXCL16 hCV8718197, All Patients, 2 Rare Alleles, Prava, n/total 19/292): (6.5%)
Fatal CHD/Definite Non-fatal MI, n/total (%) (CXCL16 hCV8718197, All Patients, 2 Rare Alleles, Prava, n/total 34/292): (11.6%)
Fatal/Non-fatal MI (def & prob), n/total (%) (CXCL16 hCV8718197, All Patients, 2 Rare Alleles, Prava, n/total 36/292): (12.3%)
Coronary Artery Bypass or Revascularization, n/total (%) (CXCL16 hCV8718197, All Patients, 2 Rare Alleles, Prava, n/total 43/292): (14.7%)
Total Coronary Heart Disease Events, n/total (%) (CXCL16 hCV8718197, All Patients, 2 Rare Alleles, Prava, n/total 94/292): (32.2%)
Hosp. for Cardiovascular Disease, n/total (%) (CXCL16 hCV8718197, All Patients, 2 Rare Alleles, Prava, n/total 124/292): (42.5%)
Total Cardiovascular Disease Events, n/total (%) (CXCL16 hCV8718197, All Patients, 2 Rare Alleles, Prava, n/total 130/292): (44.5%)
Prava vs. Placebo Odds Ratio, 0 Rare Alleles [1]: 0.45
Prava vs. Placebo Odds Ratio, 1 Rare Alleles [1]: 0.80
Prava vs. Placebo Odds Ratio, 2 Rare Alleles [1]: 2.08
Prava vs. Placebo Odds Ratio, 0 Rare Alleles [2]: 0.45
Prava vs. Placebo Odds Ratio, 1 Rare Alleles [2]: 0.93
Prava vs. Placebo Odds Ratio, 2 Rare Alleles [2]: 0.70
Prava vs. Placebo Odds Ratio, 0 Rare Alleles [3]: 0.45
Prava vs. Placebo Odds Ratio, 1 Rare Alleles [3]: 0.76
Prava vs. Placebo Odds Ratio, 2 Rare Alleles [3]: 2.08
Prava vs. Placebo Odds Ratio, 0 Rare Alleles [4]: 0.44
Prava vs. Placebo Odds Ratio, 1 Rare Alleles [4]: 0.82
Prava vs. Placebo Odds Ratio, 2 Rare Alleles [4]: 1.05
Prava vs. Placebo Odds Ratio, 0 Rare Alleles [5]: 0.38
Prava vs. Placebo Odds Ratio, 1 Rare Alleles [5]: 0.80
Prava vs. Placebo Odds Ratio, 2 Rare Alleles [5]: 0.92
Prava vs. Placebo Odds Ratio, 0 Rare Alleles [6]: 0.59
Prava vs. Placebo Odds Ratio, 1 Rare Alleles [6]: 0.89
Prava vs. Placebo Odds Ratio, 2 Rare Alleles [6]: 0.80
Prava vs. Placebo Odds Ratio, 0 Rare Alleles [7]: 0.56
Prava vs. Placebo Odds Ratio, 1 Rare Alleles [7]: 0.90
Prava vs. Placebo Odds Ratio, 2 Rare Alleles [7]: 0.81
Prava vs. Placebo Odds Ratio, 0 Rare Alleles [8]: 0.57
Prava vs. Placebo Odds Ratio, 1 Rare Alleles [8]: 0.92
Prava vs. Placebo Odds Ratio, 2 Rare Alleles [8]: 0.82
Cardiovascular Mortality, n/total (%) [9]: (3.3%)
Catheterization, n/total (%) [9]: (10.5%)
Fatal Atherosclerotic Cardiovascular Disease, n/total (%) [9]: (3.2%)
Fatal Coronary Heart Disease, n/total (%) [9]: (2.5%)
Total Mortality, n/total (%) [9]: (4.7%)
Cardiovascular Mortality, n/total (%) [10]: (4.4%)
Catheterization, n/total (%) [10]: (8.6%)
Fatal Atherosclerotic Cardiovascular Disease, n/total (%) [10]: (4.4%)
Fatal Coronary Heart Disease, n/total (%) [10]: (4.2%)
Total Mortality, n/total (%) [10]: (6.6%)
Cardiovascular Mortality, n/total (%) [11]: (2.1%)
Catheterization, n/total (%) [11]: (16.7%)
Fatal Atherosclerotic Cardiovascular Disease, n/total (%) [11]: (2.1%)
Fatal Coronary Heart Disease, n/total (%) [11]: (2.1%)
Total Mortality, n/total (%) [11]: (4.2%)
Non-fatal MI (def & prob), n/total (%) (ELN hCV1253630, All Patients, 0 Rare Alleles, Prava, n/total 42/543): (7.7%)
Fatal CHD/Definite Non-fatal MI, n/total (%) [12]: (8.3%)
Fatal/Non-fatal MI (def & prob), n/total (%) [12]: (8.3%)
Total Coronary Heart Disease Events, n/total (%) (ELN hCV1253630, All Patients, 0 Rare Alleles, Prava, n/total 146/543): (26.9%)
Hosp. for Cardiovascular Disease, n/total (%) (ELN hCV1253630, All Patients, 0 Rare Alleles, Prava, n/total 204/543): (37.6%)
Total Cardiovascular Disease Events, n/total (%) (ELN hCV1253630, All Patients, 0 Rare Alleles, Prava, n/total 212/543): (39.0%)
Non-fatal MI (def & prob), n/total (%) (ELN hCV1253630, All Patients, 1 Rare Allele, Prava, n/total 62/724): (8.6%)
Fatal CHD/Definite Non-fatal MI, n/total (%) (ELN hCV1253630, All Patients, 1 Rare Allele, Prava, n/total 65/724): (9.0%)
Fatal/Non-fatal MI (def & prob), n/total (%) (ELN hCV1253630, All Patients, 1 Rare Allele, Prava, n/total 68/724): (9.4%)
Total Coronary Heart Disease Events, n/total (%) (ELN hCV1253630, All Patients, 1 Rare Allele, Prava, n/total 206/724): (28.5%)
Hosp. for Cardiovascular Disease, n/total (%) (ELN hCV1253630, All Patients, 1 Rare Allele, Prava, n/total 291/724): (40.2%)
Total Cardiovascular Disease Events, n/total (%) (ELN hCV1253630, All Patients, 1 Rare Allele, Prava, n/total 298/724): (41.2%)
